# Data as given in patent US4160829A, “Antibacterial 1,2,4-oxadiazolylacetamido cephalosporins” (Gist-Brocades N.V., priority 1972, dated 1979).
# Where two headings read alike, the source gives them in different places.
# What was measured:
# Bac.Subt.ATCC 6633 = experiment: agar serial dilution test; type: cell-based, Bacillus subtilis; conditions: Bacillus subtilis, ATCC6633, 24 h, agar serial dilution, 24 hours, 37° C.; read-out: minimal inhibitory concentration (MIC)
# Staph.aureus A 321 = experiment: agar serial dilution test; type: cell-based, Staphylococcus aureus; conditions: Staphylococcus aureus, A321, 24 h, agar serial dilution, 24 hours, 37° C.; read-out: minimal inhibitory concentration (MIC)
# Staph.aureus A 2000 [1] = experiment: agar serial dilution test; type: cell-based, Staphylococcus aureus; conditions: Staphylococcus aureus, A2000, 24 h, agar serial dilution, 24 hours, 37° C.; read-out: minimal inhibitory concentration (MIC)
# Staph.aureus A 2001 [2] = experiment: agar serial dilution test; type: cell-based, Staphylococcus aureus; conditions: Staphylococcus aureus, A2001, 24 h, agar serial dilution, 24 hours, 37° C.; read-out: minimal inhibitory concentration (MIC)
# Strep. faec. L 80 = experiment: agar serial dilution test; type: cell-based, Streptococcus faecalis; conditions: Enterococcus faecalis; agar serial dilution, 24 hours, 37° C.; read-out: minimal inhibitory concentration (MIC)
# Dipl.pneum. L 54 = experiment: agar serial dilution test; type: cell-based, Diplococcus pneumoniae; conditions: Streptococcus pneumoniae; agar serial dilution, 24 hours, 37° C.; read-out: minimal inhibitory concentration (MIC)
# Bruc.melit. A 488 = experiment: microbe, parasite or virus in culture; type: cell-based; conditions: Brucella melitensis, 24 h, read-out: minimal inhibitory concentration (MIC)
# Past.multo. A 723 = experiment: agar serial dilution test; type: cell-based, Pasteurella multocida; conditions: Pasteurella multocida; agar serial dilution, 24 hours, 37° C.; read-out: minimal inhibitory concentration (MIC)
# Kleb.pneum. A 809 = experiment: agar serial dilution test; type: cell-based, Klebsiella pneumoniae; conditions: Klebsiella pneumoniae; agar serial dilution, 24 hours, 37° C.; read-out: minimal inhibitory concentration (MIC)
# Salm.dubl. P 43 = experiment: agar serial dilution test; type: cell-based, Salmonella dublin; conditions: Salmonella enterica; agar serial dilution, 24 hours, 37° C.; read-out: minimal inhibitory concentration (MIC)
# Salm.typh. R 127 = experiment: agar serial dilution test; type: cell-based; conditions: 24 h, 37° C., read-out: minimal inhibitory concentration (MIC)
# Esch.coli U 20 = experiment: agar serial dilution test; type: cell-based, Escherichia coli; conditions: Escherichia coli, U20; agar serial dilution, 24 hours, 37° C.; read-out: minimal inhibitory concentration (MIC)
# Shig.equir. T 3 = experiment: agar serial dilution test; type: cell-based; conditions: 24 h, 37° C., read-out: minimal inhibitory concentration (MIC)
# Pseud.aerug. H 10 = experiment: agar serial dilution test; type: cell-based; conditions: agar serial dilution, 24 hours, 37° C.; read-out: minimal inhibitory concentration (MIC)
# Pseud.aerug. 2396 = experiment: agar serial dilution test; type: cell-based; conditions: agar serial dilution, 24 hours, 37° C.; read-out: minimal inhibitory concentration (MIC)
# [3] = test system: Pseud.aerug. Wyeth A 1058; experiment: agar serial dilution test; type: cell-based; conditions: agar serial dilution, 24 hours, 37° C.; read-out: minimal inhibitory concentration (MIC)
# Prot.rettg. A 821 = experiment: agar serial dilution test; type: cell-based, Proteus rettgeri; conditions: Providencia rettgeri, 24 h, agar serial dilution, 24 hours, 37° C.; read-out: minimal inhibitory concentration (MIC)
# Prot.mirab. H 3 = experiment: agar serial dilution test; type: cell-based, Proteus mirabilis; conditions: Proteus mirabilis; agar serial dilution, 24 hours, 37° C.; read-out: minimal inhibitory concentration (MIC)
# Prot.mirab. L 93 = experiment: agar serial dilution test; type: cell-based, Proteus mirabilis; conditions: Proteus mirabilis
# Prot.mirab. A 1200 = experiment: agar serial dilution test; type: cell-based, Proteus mirabilis; conditions: Proteus mirabilis, 24 h, agar serial dilution, 24 hours, 37° C.; read-out: minimal inhibitory concentration (MIC)
# Prot.morg. 2241 = experiment: agar serial dilution test; type: cell-based; conditions: 24 h, agar serial dilution, 24 hours, 37° C.; read-out: minimal inhibitory concentration (MIC)
# Staph.aureus A 355 [4] = experiment: micro serial dilution test; type: cell-based, Staphylococcus aureus; conditions: Staphylococcus aureus, A355; micro serial dilution (in brackets), about 18 hours, 30° C. or 37° C.; penicillinase-producing strain; read-out: minimal inhibitory concentration (MIC)
# Source text: Two drops of a stock solution of the test compound (antibiotic) in a known concentration were brought into the first hole of a test plate with 9 numbered holes with a sterile Pasteur pipette. After rinsing this pipette three times with a physiological NaCl-solution, two drops of a stock solution of the test organism in a culture medium were brought in all the holes except for hole 8. In the first hole, the solution of the tested compound had been half diluted, then by stirring the liquid in the first hole and adding two drops of this mixture to the second hole and so on until hole 8, dilutions of the test compound solution were obtained in geometrical progression. The hole 9 contained no antibiotic and served for checking the growth of the testogranism in a blank medium. The test plate was incubated at 30° C. or 37° C. for about 18 hours.
# ^1 Penicillinase-producing strain
# Staph.aureus A 2000 [5] = experiment: micro serial dilution test; type: cell-based, Staphylococcus aureus; conditions: Staphylococcus aureus, A2000, 18 h, micro serial dilution (in brackets), about 18 hours, 30° C. or 37° C.; read-out: minimal inhibitory concentration (MIC)
# Staph.aureus A 2001 [6] = experiment: micro serial dilution test; type: cell-based, Staphylococcus aureus; conditions: Staphylococcus aureus, A2001, 18 h, micro serial dilution (in brackets), about 18 hours, 30° C. or 37° C.; read-out: minimal inhibitory concentration (MIC)
# Haem.infl. A 1030 = experiment: micro serial dilution test; type: cell-based; conditions: 18 h, micro serial dilution (in brackets), about 18 hours, 30° C. or 37° C.; read-out: minimal inhibitory concentration (MIC)
# Staph.aureus A 355 [7] = experiment: agar serial dilution test; conditions: Staphylococcus aureus, A355, 24 h, read-out: minimal inhibitory concentration (MIC), agar serial dilution, 24 hours, 37° C.; penicillinase-producing strain
# Strep.haem. A 266 = experiment: agar serial dilution test; type: cell-based, Streptococcus haemolyticus; conditions: Streptococcus; agar serial dilution, 24 hours, 37° C.; read-out: minimal inhibitory concentration (MIC)
# [8] = agar serial dilution, 24 hours, 37° C., read-out: minimal inhibitory concentration (MIC)
compound,measurement,setting,value
"Cc1noc(C(C(=O)N[C@@H]2C(=O)N3[C@@H]2SC(C)(C)[C@@H]3C(=O)O)c2ccccc2)n1 (mixture of isomers) [Example 6, sodium DL-6-{[α-phenyl-3-methyl-1,2,4-oxadiazol-5-yl-]-acetamido}-penicillanate]",MIC,Bac.Subt.ATCC 6633,0.03 µg/mL
same,MIC,Staph.aureus A 321,0.25 µg/mL
same,MIC,Staph.aureus A 2000 [1],1.5 µg/mL
same,MIC,Staph.aureus A 2001 [2],1 µg/mL
same,MIC,Strep. faec. L 80,1 µg/mL
same,MIC,Dipl.pneum. L 54,0.06 µg/mL
same,MIC,Bruc.melit. A 488,1 µg/mL
same,MIC,Past.multo. A 723,1 µg/mL
same,MIC,Kleb.pneum. A 809,100 µg/mL
same,MIC,Salm.dubl. P 43,100 µg/mL
same,MIC,Salm.typh. R 127,> 100 µg/mL
same,MIC,Esch.coli U 20,100 µg/mL
same,MIC,Shig.equir. T 3,12.5 µg/mL
same,MIC,Pseud.aerug. H 10,> 100 µg/mL
same,MIC,Pseud.aerug. 2396,> 100 µg/mL
same,MIC,[3],> 100 µg/mL
same,MIC,Prot.rettg. A 821,3 µg/mL
same,MIC,Prot.mirab. H 3,100 µg/mL
same,MIC,"Prot.mirab. L 93; 24 h, read-out: minimal inhibitory concentration (MIC), agar serial dilution, 24 hours, 37° C.",12.5 µg/mL
same,MIC,Prot.mirab. A 1200,100 µg/mL
same,MIC,Prot.morg. 2241,> 100 µg/mL
same,MIC,Staph.aureus A 355 [4],125 µg/mL
same,MIC,Staph.aureus A 2000 [5],23 µg/mL
same,MIC,Staph.aureus A 2001 [6],2.5 µg/mL
same,MIC,Haem.infl. A 1030,1.2 µg/mL
same,MIC,Staph.aureus A 355 [7],25 µg/mL
"Cc1noc(C(C)C(=O)N[C@@H]2C(=O)N3[C@@H]2SC(C)(C)[C@@H]3C(=O)O)n1 (mixture of isomers) [Example 11H, dl-6[α-methyl-(3-methyl-1,2,4-oxadiazol-5-yl)-acetamido]-penicillanic acid]",MIC,Bac.Subt.ATCC 6633,0.06 µg/mL
same,MIC,Staph.aureus A 321,0.25 µg/mL
same,MIC,Staph.aureus A 2000 [1],6 µg/mL
same,MIC,Staph.aureus A 2001 [2],3 µg/mL
same,MIC,Strep.haem. A 266,0.5 µg/mL
same,MIC,Strep. faec. L 80,6 µg/mL
same,MIC,Dipl.pneum. L 54,0.25 µg/mL
same,MIC,Bruc.melit. A 488,0.25 µg/mL
same,MIC,Past.multo. A 723,1.5 µg/mL
same,MIC,Kleb.pneum. A 809,> 100 µg/mL
same,MIC,Salm.dubl. P 43,50 µg/mL
same,MIC,Salm.typh. R 127,100 µg/mL
same,MIC,Esch.coli U 20,≥ 100 µg/mL
same,MIC,Shig.equir. T 3,25 µg/mL
same,MIC,Pseud.aerug. H 10,> 100 µg/mL
same,MIC,Pseud.aerug. 2396,> 100 µg/mL
same,MIC,[3],> 100 µg/mL
same,MIC,Prot.rettg. A 821,12.5 µg/mL
same,MIC,Prot.mirab. H 3,> 100 µg/mL
same,MIC,Prot.mirab. L 93; [8],6 µg/mL
same,MIC,Prot.mirab. A 1200,> 100 µg/mL
same,MIC,Prot.morg. 2241,> 100 µg/mL
same,MIC,Haem.infl. A 1030,3.7 µg/mL
same,MIC,Staph.aureus A 355 [7],12.5 µg/mL
"CCc1noc(CC(=O)N[C@@H]2C(=O)N3C(C(=O)O)=C(COC(C)=O)CS[C@H]23)n1 [Example 11L, 7-[(3-ethyl-1,2,4-oxadiazol-5-yl)-acetamido]-cephalosporanic acid]",MIC,Bac.Subt.ATCC 6633,0.12 µg/mL
same,MIC,Staph.aureus A 321,0.25 µg/mL
same,MIC,Staph.aureus A 2000 [1],1 µg/mL
same,MIC,Staph.aureus A 2001 [2],1 µg/mL
same,MIC,Strep.haem. A 266,0.25 µg/mL
same,MIC,Strep. faec. L 80,50 µg/mL
same,MIC,Dipl.pneum. L 54,1 µg/mL
same,MIC,Bruc.melit. A 488,6 µg/mL
same,MIC,Past.multo. A 723,2 µg/mL
same,MIC,Kleb.pneum. A 809,1.5 µg/mL
same,MIC,Salm.dubl. P 43,3 µg/mL
same,MIC,Salm.typh. R 127,6 µg/mL
same,MIC,Esch.coli U 20,6 µg/mL
same,MIC,Shig.equir. T 3,3 µg/mL
same,MIC,Pseud.aerug. H 10,> 100 µg/mL
same,MIC,Pseud.aerug. 2396,> 100 µg/mL
same,MIC,[3],> 100 µg/mL
same,MIC,Prot.rettg. A 821,1 µg/mL
same,MIC,Prot.mirab. H 3,50 µg/mL
same,MIC,Prot.mirab. L 93; [8],3 µg/mL
same,MIC,Prot.mirab. A 1200,25 µg/mL
same,MIC,Prot.morg. 2241,> 100 µg/mL
same,MIC,Haem.infl. A 1030,≥ 125 µg/mL
same,MIC,Staph.aureus A 355 [7],1 µg/mL
"CCc1noc(C(C)C(=O)N[C@@H]2C(=O)N3[C@@H]2SC(C)(C)[C@@H]3C(=O)O)n1 (stereo partly drawn) [Example 11M, sodium 6-[α-methyl-(3-ethyl-1,2,4-oxadiazol-5-yl)-acetamido]-penicillanate H2 O]",MIC,Bac.Subt.ATCC 6633,0.06 µg/mL
same,MIC,Staph.aureus A 321,0.12 µg/mL
same,MIC,Staph.aureus A 2000 [1],6 µg/mL
same,MIC,Staph.aureus A 2001 [2],6 µg/mL
same,MIC,Strep.haem. A 266,0.5 µg/mL
same,MIC,Strep. faec. L 80,6 µg/mL
same,MIC,Dipl.pneum. L 54,0.5 µg/mL
same,MIC,Bruc.melit. A 488,0.5 µg/mL
same,MIC,Past.multo. A 723,1 µg/mL
same,MIC,Kleb.pneum. A 809,> 100 µg/mL
same,MIC,Salm.dubl. P 43,50 µg/mL
same,MIC,Salm.typh. R 127,> 100 µg/mL
same,MIC,Esch.coli U 20,> 100 µg/mL
same,MIC,Shig.equir. T 3,50 µg/mL
same,MIC,Pseud.aerug. H 10,> 100 µg/mL
same,MIC,Pseud.aerug. 2396,> 100 µg/mL
same,MIC,[3],> 100 µg/mL
same,MIC,Prot.rettg. A 821,3 µg/mL
same,MIC,Prot.mirab. H 3,> 100 µg/mL
same,MIC,Prot.mirab. L 93; [8],25 µg/mL
same,MIC,Prot.mirab. A 1200,> 100 µg/mL
same,MIC,Prot.morg. 2241,> 100 µg/mL
same,MIC,Haem.infl. A 1030,3.7 µg/mL
same,MIC,Staph.aureus A 355 [7],12.5 µg/mL
"Cc1nc(CC(=O)N[C@@H]2C(=O)N3[C@@H]2SC(C)(C)[C@@H]3C(=O)O)no1 [Example 13, Sodium 6-[(5-methyl-1,2,4-oxadiazol-3-yl)-acetamido]-penicillanate]",MIC,Bac.Subt.ATCC 6633,0.03 µg/mL
same,MIC,Staph.aureus A 321,0.12 µg/mL
same,MIC,Staph.aureus A 2000 [1],1.5 µg/mL
same,MIC,Staph.aureus A 2001 [2],1.5 µg/mL
same,MIC,Strep.haem. A 266,0.03 µg/mL
same,MIC,Strep. faec. L 80,6 µg/mL
same,MIC,Dipl.pneum. L 54,1 µg/mL
same,MIC,Bruc.melit. A 488,3 µg/mL
same,MIC,Past.multo. A 723,1 µg/mL
same,MIC,Kleb.pneum. A 809,> 100 µg/mL
same,MIC,Salm.dubl. P 43,3 µg/mL
same,MIC,Salm.typh. R 127,25 µg/mL
same,MIC,Esch.coli U 20,50 µg/mL
same,MIC,Shig.equir. T 3,3 µg/mL
same,MIC,Pseud.aerug. H 10,> 100 µg/mL
same,MIC,[3],> 100 µg/mL
same,MIC,Prot.rettg. A 821,6 µg/mL
same,MIC,Prot.mirab. H 3,100 µg/mL
same,MIC,Prot.mirab. L 93; [8],3 µg/mL
same,MIC,Prot.mirab. A 1200,25 µg/mL
same,MIC,Prot.morg. 2241,100 µg/mL
same,MIC,Haem.infl. A 1030,125 µg/mL
same,MIC,Staph.aureus A 355 [7],10 µg/mL
